Patent US10457709B2, “Antimicrobial peptides, their variants and uses” (priority 2015, dated 2019)
≈ marks a conversion by molar mass, not a printed value. Read-outs that look alike come from different tables or passages of the source. Square brackets hold non-standard residues; d marks the D form. Peptide text beside a SMILES is read from it.

Columns and labels:
[1] = system: C. parapsilosis clinical strains; experiment: MIC, clinical yeast strains; format: cell-based, Candida parapsilosis; design: unit: µg/ml
Summary of the method: (§1)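 Clinical isolates tested by broth microdilution at 5.0×10^5 cfu/ml with peptides at 0.125–128 μg/ml, incubated 20–24 h at 37° C. Bacteria were grown in Mueller Hinton broth and yeasts in potato dextrose broth. MIC is the lowest concentration showing no visible growth.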

[2] = system: Acinetobacter johnsonii clinical strains; format: cell-based; conditions: Acinetobacter johnsonii clinical strain 1; microdilution, Muller Hinton broth-cation adjusted, 0.02% BSA, 0.2% acetic acid
Summary of the method: as §1

[3] = system: Klebsiella pneumoniae clinical strains; format: cell-based; conditions: microdilution, Muller Hinton broth-cation adjusted, 0.02% BSA, 0.2% acetic acid
Summary of the method: as §1

[4] = system: Pseudomonas aeruginosa clinical strains; format: cell-based; conditions: microdilution, Muller Hinton broth-cation adjusted, 0.02% BSA, 0.2% acetic acid
Summary of the method: as §1

[5] = system: Escherichia coli clinical strains; format: cell-based; conditions: for Minimum inhibitory concentration: microdilution, Muller Hinton broth-cation adjusted, 0.02% BSA, 0.2% acetic acid
Summary of the method: as §1

[6] = system: all the bacteria and yeasts tested; format: cell-based
Summary of the method: as §1

[7] = system: C. glabrata clinical strains; experiment: MIC, clinical yeast strains; format: cell-based, Candida glabrata; design: unit: µg/ml
Summary of the method: as §1

[8] = system: Candida albicans clinical strains; experiment: MIC, clinical yeast strains; format: cell-based; design: unit: μg/ml
Summary of the method: as §1

[9] = system: C. quillermondiae clinical strains; experiment: MIC, clinical yeast strains; format: cell-based, Candida quillermondiae; design: unit: μg/ml; conditions: C. quillermondiae clinical yeast strain 1
Summary of the method: as §1

[10] = system: Enterobacter cloacae clinical strains; format: cell-based; design: Minimum inhibitory concentration: unit: μg/ml; conditions: microdilution, Muller Hinton broth-cation adjusted, 0.02% BSA, 0.2% acetic acid
Summary of the method: as §1

[11] = system: Proteus mirabilis clinical strains; format: cell-based; design: Minimum inhibitory concentration: unit: μg/ml; conditions: microdilution, Muller Hinton broth-cation adjusted, 0.02% BSA, 0.2% acetic acid
Summary of the method: as §1

[12] = system: Staphylococcus aureus clinical strains; format: cell-based; design: Minimum inhibitory concentration: unit: μg/ml; conditions: microdilution, Muller Hinton broth-cation adjusted, 0.02% BSA, 0.2% acetic acid
Summary of the method: as §1

[13] = system: Serratia marcescens clinical strains; format: cell-based; design: Minimum inhibitory concentration: unit: μg/ml; conditions: microdilution, Muller Hinton broth-cation adjusted, 0.02% BSA, 0.2% acetic acid
Summary of the method: as §1

[14] = system: Acinetobacter baumannii clinical strains; format: cell-based; design: Minimum inhibitory concentration: unit: μg/ml; conditions: microdilution, Muller Hinton broth-cation adjusted, 0.02% BSA, 0.2% acetic acid
Summary of the method: as §1

[15] = system: Streptococcus pneumoniae clinical strains; format: cell-based; design: Minimum inhibitory concentration: unit: μg/ml; conditions: microdilution, Muller Hinton broth-cation adjusted, 0.02% BSA, 0.2% acetic acid
Summary of the method: as §1

`CC(C)C[C@@H](NC(=O)[C@H](N)CCCNC(=N)N)C(=O)N[C@H](CCCCN)C(=O)N[C@H](CCCNC(=N)N)C(=O)N[C@H](Cc1c[nH]c2ccccc12)C(=O)N[C@H](CCCNC(=N)N)C(=O)N[C@H](CC(C)C)C(=O)N[C@H](Cc1ccccc1)C(=O)N[C@H](CCCNC(=N)N)C(=O)N[C@H](CCCCN)C(=O)N[C@H](CCCNC(=N)N)C(=O)O` [Chain306D] (H-[dR][dL][dK][dR][dW][dR][dL][dF][dR][dK][dR]-OH) was tested, and the Minimum inhibitory concentration ([1]; C. parapsilosis clinical yeast strain 1) was 8, the Minimum inhibitory concentration ([1]; C. parapsilosis clinical yeast strain 2) was 16 and the Minimum inhibitory concentration ([1]; C. parapsilosis clinical yeast strain 3) was 16. For the same compound, the Minimum inhibitory concentration ([1]; C. parapsilosis clinical yeast strain 4) was 4, the Minimum inhibitory concentration [2] was 16 and the Minimum inhibitory concentration ([3]; Klebsiella pneumoniae clinical strain 1) was 128. The Minimum inhibitory concentration ([3]; Klebsiella pneumoniae clinical strain 2) was greater than 128, the Minimum inhibitory concentration ([3]; Klebsiella pneumoniae clinical strain 3) was greater than 128 and the Minimum inhibitory concentration ([3]; Klebsiella pneumoniae clinical strain 4) was 64. For the same compound, the Minimum inhibitory concentration ([3]; Klebsiella pneumoniae clinical strain 5) was 64, the Minimum inhibitory concentration ([4]; Pseudomonas aeruginosa clinical strain 1) was 128 and the Minimum inhibitory concentration ([4]; Pseudomonas aeruginosa clinical strain 2) was greater than 128. It also gave a Minimum inhibitory concentration ([4]; Pseudomonas aeruginosa clinical strain 3) of 128, a Minimum inhibitory concentration ([4]; Pseudomonas aeruginosa clinical strain 4) greater than 128 and a Minimum inhibitory concentration ([4]; Pseudomonas aeruginosa clinical strain 5) of 128. It also gave a Minimum inhibitory concentration ([5]; Escherichia coli clinical strain 1) of 1, a Minimum inhibitory concentration ([5]; Escherichia coli clinical strain 2) of 2 and a Minimum inhibitory concentration ([5]; Escherichia coli clinical strain 3) of 2. The Minimum inhibitory concentration ([5]; Escherichia coli clinical strain 4) was 2, the Minimum inhibitory concentration ([5]; Escherichia coli clinical strain 5) was 2 and the “MIC against E. coli” value ([5]; clinical strains) was 1 µg/mL (≈ 0.619 µM). The “MIC against the rest of the bacterial strains” value [6] was greater than 32 µg/mL, the Minimum inhibitory concentration ([7]; C. glabrata clinical yeast strain 1) was 8 and the Minimum inhibitory concentration ([7]; C. glabrata clinical yeast strain 2) was 8. For the same compound, the Minimum inhibitory concentration ([7]; C. glabrata clinical yeast strain 3) was 16, the Minimum inhibitory concentration ([7]; C. glabrata clinical yeast strain 4) was 32 and the Minimum inhibitory concentration ([8]; Candida albicans clinical yeast strain 1) was 16. It also gave a Minimum inhibitory concentration ([8]; Candida albicans clinical yeast strain 2) of 8, a Minimum inhibitory concentration ([8]; Candida albicans clinical yeast strain 3) of 8 and a Minimum inhibitory concentration ([8]; Candida albicans clinical yeast strain 4) of 16. The Minimum inhibitory concentration ([8]; Candida albicans clinical yeast strain 5) was 16, the Minimum inhibitory concentration [9] was 4 and the Minimum inhibitory concentration ([10]; Enterobacter cloacae clinical strain 1) was 64. For the same compound, the Minimum inhibitory concentration ([10]; Enterobacter cloacae clinical strain 2) was 64, the Minimum inhibitory concentration ([10]; Enterobacter cloacae clinical strain 3) was 32 and the Minimum inhibitory concentration ([10]; Enterobacter cloacae clinical strain 4) was 16. For the same compound, the Minimum inhibitory concentration ([10]; Enterobacter cloacae clinical strain 5) was 16, the Minimum inhibitory concentration ([11]; Proteus mirabilis clinical strain 1) was greater than 128 and the Minimum inhibitory concentration ([11]; Proteus mirabilis clinical strain 2) was greater than 128. It also gave a Minimum inhibitory concentration ([11]; Proteus mirabilis clinical strain 3) greater than 128, a Minimum inhibitory concentration ([11]; Proteus mirabilis clinical strain 4) greater than 128 and a Minimum inhibitory concentration ([11]; Proteus mirabilis clinical strain 5) greater than 128. The Minimum inhibitory concentration ([12]; Staphylococcus aureus clinical strain 1) was 16, the Minimum inhibitory concentration ([12]; Staphylococcus aureus clinical strain 2) was 32 and the Minimum inhibitory concentration ([12]; Staphylococcus aureus clinical strain 3) was 32. It also gave a Minimum inhibitory concentration ([12]; Staphylococcus aureus clinical strain 4) of 16, a Minimum inhibitory concentration ([12]; Staphylococcus aureus clinical strain 5) of 8 and a Minimum inhibitory concentration ([13]; Serratia marcescens clinical strain 1) greater than 128. It also gave a Minimum inhibitory concentration ([13]; Serratia marcescens clinical strain 2) greater than 128, a Minimum inhibitory concentration ([13]; Serratia marcescens clinical strain 3) greater than 128 and a Minimum inhibitory concentration ([13]; Serratia marcescens clinical strain 4) greater than 128. It also gave a Minimum inhibitory concentration ([13]; Serratia marcescens clinical strain 5) greater than 128, a Minimum inhibitory concentration ([14]; Acinetobacter baumannii clinical strain 1) of 16 and a Minimum inhibitory concentration ([14]; Acinetobacter baumannii clinical strain 2) of 32. The Minimum inhibitory concentration ([14]; Acinetobacter baumannii clinical strain 3) was 16, the Minimum inhibitory concentration ([14]; Acinetobacter baumannii clinical strain 4) was 16 and the Minimum inhibitory concentration ([14]; Acinetobacter baumannii clinical strain 5) was 8. It also gave a Minimum inhibitory concentration ([15]; Streptococcus pneumoniae clinical strain 1) of 64, a Minimum inhibitory concentration ([15]; Streptococcus pneumoniae clinical strain 2) of 64 and a Minimum inhibitory concentration ([15]; Streptococcus pneumoniae clinical strain 3) of 64. For the same compound, the Minimum inhibitory concentration ([15]; Streptococcus pneumoniae clinical strain 4) was 128 and the Minimum inhibitory concentration ([15]; Streptococcus pneumoniae clinical strain 5) was 64.
